Key:
human islets = assay: apoptosis of human islets incubated in high glucose; assay type: cell-based; conditions: co-incubated with compound vs not co-incubated
Source text: Another potential way to intervene in the destruction of beta-cells in the development of Type 1 diabetes is by treatment with compounds that inhibit insulin secretion, thereby inducing beta-cell rest.

beta-cells = conditions: 3 months treatment; cited from earlier work

SMILES | apoptosis, or programmed cell death, of human islets (human islets) | residual C-peptide, a marker of beta-cell function (beta-cells)
CC1(NC2=NS(=O)(=O)c3sc(Cl)cc3N2)CC1 [6-chloro-3-(1-methylcyclopropyl)amino-4H-thieno[3,2-e]-1,2,4-thiadiazine 1,1-dioxide] | significantly less apoptosis | 
CC1=NS(=O)(=O)c2cc(Cl)ccc2N1 [diazoxide] |  | preservation of residual C-peptide
